Data reported in patent US8404683B2, “Inhibitors of the interaction between MDM2 and P53” (Janssen Pharmaceutical N.V., priority 2004, dated 2013).

Experiments:
U87MG cells = test: Proliferation assay (MTT-based) on U87MG tumour cells; conditions: Homo sapiens, U-87 MG, 96 h, 4 days of incubation, negative log value of the IC50-value, read-out: cell proliferation pIC50 (converted)
Summary of the method: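 Human glioblastoma U87MG cells (wild-type p53) exposed to compound for 4 days at ≤0.1% DMSO, then MTT added for 2 h at 37 °C and absorbance read at 540 nm. Growth expressed as % of untreated control; IC50 by probit analysis, reported as pIC50.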

## O=c1cc(Nc2ccc(NCCc3c[nH]c4ccccc34)cc2)c2ccccc2[nH]1 [Compound 3]
U87MG cells
  IC50: 5.01 µM
other
  melting point: 238 °C

## c1ccc2c(CCNc3ccc(Nc4ncnc5[nH]ccc45)cc3)c[nH]c2c1 [Compound 117]
U87MG cells
  IC50: > 10 µM
other
  melting point: 211 °C
